Consider two compounds from patent US5198552A, “Indole derivative having antiviral, interferon-inducing and immunomodulatory effects” (priority 1991, dated 1993).

In data set [1] the test system is interferon. The settings on record: human blood serum; cited from earlier work.
In the next data set the test system is antibody-producing cells. As to the kind of experiment: Antibody-producing cells in the spleen of mice immunized with sheep erythrocytes. It counts as in vivo.
Data set [2] has as its system interferon. The settings on record: mouse blood serum; cited from earlier work.
The subject of data set [3] is interferon. The settings on record: cell culture; cited from earlier work.
A further data set concerns stem cells. In words: Inactivation of stem cells with allogenic lymphocytes (graft versus host, spleen endocolonies). It counts as in vivo, mice.
The subject of another data set is peritoneal macrophages. As to the kind of experiment: Absorbing capacity of mouse peritoneal macrophages (neutral red). The data set is classed as in vivo, mice.
The conditions of data set [4]: cited from earlier work.
Data set [5] has as its system influenza A/B viruses. The data set is classed as cell-based.
The subject of another data set is influenza viruses. As to the kind of experiment: Virucidal action on influenza viruses.
The nature of a further data set: in vivo. The settings on record: mouse, po.
The subject of another data set is influenza B virus. In words: Activity against influenza B virus. The settings on record: hydrochloride. The data set is classed as cell-based. The procedure: The antiviral effect of the preparation against influenza A/B viruses was tested on a hen embryo fabroblast cell culture.
The test system of data set [6] is influenza A/B viruses. In words: Medicinal effect on experimental influenzal pneumonia of mice induced by influenza A/B viruses. The data set is classed as in vivo.
Another data set concerns influenza A virus. In words: Activity against influenza A virus. The data set is classed as cell-based.
The nature of data set [7]: Maximum tolerable concentration for chick embryo fibroblasts. The data set is classed as cell-based. The following applies: chicken.
For data set [8] the following is noted: in vivo; cited from earlier work.
Where [9] appears, read: 1 day after single administration.
The mark [10] stands for this setting: 2 day after single administration.
Where [11] appears, read: 3 day after single administration.

Structures are written as SMILES. Structures can show the parent of a compound that is named as a salt. Where two headings read alike, the source gives them in different places.

With `c1ccc([C@H]2CN3CCSC3=N2)cc1` [Levamisole, (-) 2,3,5,6,-tetrahydro-6-phenylimidazo-/2.1.b/-thiazole hydrochloride, reference compound], the figures for the interferon titers with interferon [1], with interferon [2] and in the data set with interferon [3] were 40-80 U/ml, 160-320 U/ml and 80-160 U/ml, respectively. The “immunopotentiating effect on tumor-carrier animals” value in the data set with antibody-producing cells (7-17 day of tumor development, single (3 days prior to immunization) or 5-times daily) was “inefficient”. The “Antibody-producing cells in spleen (% of control)” value in the data set with antibody-producing cells (intact mice, 5 times at a 5-day interval) was 170 ± 15.1%; in the data set on antibody-producing cells (intact mice, during 3 days, daily), 164 ± 6.1%; with antibody-producing cells (totally irradiated (2 Gr.), 5 times at a 5-day interval), 104 ± 6.0%; in the data set with antibody-producing cells (totally irradiated (2 Gr.), during 3 days, daily) it was 174 ± 24.0%; in the data set on antibody-producing cells (totally irradiated tumor-carriers (2 Gr.), 5 times at a 5-day interval), 402 ± 12.5%; in the data set on antibody-producing cells (totally irradiated tumor-carriers (2 Gr.), during 3 days, daily), 86.0 ± 35.0%. The “Antibody-producing cells in spleen (% of control)” value with antibody-producing cells (tumor-carriers, 5 times at a 5-day interval) is 91 ± 14.0%; with antibody-producing cells (tumor-carriers, during 3 days, daily), 14 ± 23.0%. For the same compound, the “immunostimulating effect on irradiated animals” value with antibody-producing cells (irradiated animals) is on record as “of low efficacy”. Further, in the data set on antibody-producing cells (totally irradiated tumor-carriers), the “immunopotentiating effect on totally irradiated tumor-carrier animals” value is given as “also had the immunopotentiating effect”. Further, the “The counts of spleen endocolonies (M ± m)” value in the data set with stem cells (1.25 × 10^6 lymphocytes) is on record as 2.3 ± 0.5; in the data set with stem cells (2.5 × 10^6 lymphocytes), 1.1 ± 0.2; in the data set with stem cells (5.0 × 10^6 lymphocytes) it was 0.7 ± 0.2; with stem cells (no lymphocytes given, hydrochloride) it was 1.1 ± 0.3; with stem cells (no lymphocytes given, listed as levamisole, hydrochloride) it was “somewhat decreases the yield of the spleen colonies”. Further, in the data set on stem cells (preparation 100 mg per 1 kg orally, levamisole 5 mg per 1 kg), the “effect on yield of spleen colonies under graft versus host conditions” value is reported as “identical but a less pronounced effect”. Besides, the “Absorbing Capacity of Peritoneal Macrophages” value amounted to 24.2 ± 4.5 mg/6 × 10^6 cells with peritoneal macrophages (setting [9]), 27.7 ± 3.2 mg/6 × 10^6 cells with peritoneal macrophages (setting [10]) and 32.5 ± 2.4 mg/6 × 10^6 cells in the data set on peritoneal macrophages (setting [11]). Besides, the entries for the “Absorbing Capacity, percent of control” value in the data set on peritoneal macrophages (setting [9]), in the data set on peritoneal macrophages (setting [10]) and with peritoneal macrophages (setting [11]) were 116 ± 21%, 121 ± 14% and 135 ± 9.9%, respectively. Moreover, in the data set with peritoneal macrophages (by 2-3 days after a single administration, p<0.05), the “absorbing capacity of macrophages” value is on record as 138±11%. Moreover, the “effect on counts of macrophages washed off the peritoneal cavity” value in the data set with peritoneal macrophages (mouse, in vivo) is given as “no effect on counts of macrophages”. Also, the side-effects result in data set [4] (in vivo) was “a headache, sleep disturbances, olfactory hallicinations (odour changes), allergic skin hypersensitivity, influenza-like and neurologic symptoms”. In addition, in data set [4] (in vivo), the toxicity result was “highly toxic”. Moreover, the “agranulocytosis: decrease of neutrophile to a value” in data set [4] (treatment as an immunomodulator) was “below 25%”.
On to `CC(N)C12CC3CC(CC(C3)C1)C2` (stereo not shown) [Remantadine, alfa-methyl-1-adamantanemethylamine hydrochloride], for which the “inhibition of influenza A/B virus reproduction / chemotherapeutical effect” value with influenza A/B viruses [5] is listed as “Inhibits the reproduc-”. Further, in the data set with influenza viruses, the “virucidal action on influenza viruses” value is “No virucidal action”. For the same compound, the LD50 (usually the dose at which mortality reaches 50%) in “in vivo” stood at 340 mg/kg. Moreover, the “efficacy against influenza B virus” value with influenza B virus is “It is inefficient against”; in the data set with influenza B virus (listed as remantadine), “inefficient against influenza B virus”. Moreover, in the data set with influenza A/B viruses [6], the “medicinal (chemotherapeutical) effect on influenzal pneumonia” value was “Exert a medicinal effect”. Also, the “efficacy against influenza A virus” value in the data set with influenza A virus is listed as “efficient only against influenza A virus”. This compound displayed an MNTC in data set [7] of 20 µg/mL. For the same compound, the side-effect result in data set [8] is listed as “side-effect on a central nervous system”.
